20 compounds from patent publication US12527774B2, “Estrogen-related receptor alpha modulators” (LEAD PHARMA HOLDING B.V., priority 2019, dated 2026) can be followed below.

The target of one test is full length ERRα (Homo sapiens (Human), UniProt P11474). Put plainly: Full Length ERRα Reporter Gene Assay. In kind it is cell-based. The settings on record: SK-BR-3 cells, ERRα-RE luciferase reporter, overnight incubation; for IC50: read-out: mean pIC50 (converted). From the text: Full Length ERRα Reporter Gene Assay
A method was established to quantitatively screen the potency of compounds with inverse agonistic activity on the nuclear receptor ERRα of the human species. The assay allows intra-cellular screening of ERRα inverse agonists in SK-BR-3 cells using an over-expression construct coding full length ERRα and a reporter construct containing an ERRα Response Element (RE) and a luciferase gene for read out. The activity is expressed in log IC50 values and can be used to determine SAR of compound families or to de-select compounds.
In this assay, reporter cells are obtained by transient co-transfection of two constructs in SK-BR-3 cells using standard transfection techniques. The first construct contains a response element of the nuclear receptor ERRα (Plasmid pLP2175, Reporter construct ERRα-RE/luc2P, cloned variant of ERRα_v2_synthRE, Switchgear Genomics, Catalog Number S900089). This sequence drives the transcription of the luciferase reporter gene in response to binding of an ERRα protein encoded by the second construct (Plasmid pLP2124: full length ERRα expression construct using pcDNA3.1/Hygro(+) as background, Invitrogen Catalog Number V87020).
The day after transfection, cells were plated into 96 well plates, test compound was added and the plates were incubated overnight. Subsequently, the firefly luciferase activity was quantified using luciferase detection reagent and luminescence readout.
Detailed Assay Description
Transfection is performed on pre-seeded SK-BR-3 cells in a T175 flask. One transfected T175 flask is sufficient for seeding 3 to 4 MW96 plates the next day, depending on the confluency of the transfected cells.
Two different media are used in this protocol for cell treatment: 1) Culture medium, i.e. McCoy's 5a with phenol red (BioWhittaker Supplier Number 12-688F), 10% FBS and 1× Penstrep.; and, 2) Assay medium, i.e. McCoy's 5a Medium phenol red free (HyClone Product Code SH30270.01) with 2% Charcoal Stripped FBS and 1× Penstrep. Compound dilutions are prepared in assay medium.
Cells are seeded at least 2 days in advance to allow the cells to adhere well to flask before transfection. Cells should be 50-80% confluent at the day of transfection.
SKBR3 cells were transfected with the transcriptional reporter construct pLP2175 and the ERRα expression construct pLP2124 (as described above).
68 μL of Lipofectamine LTX transfection reagent (Invitrogen Catalog Number 15338-100) was added dropwise to 8.9 ml Opti-MEM I Reduced Serum Medium (Gibco Catalog Number 51985-026) and incubated at room temperature for 5 to 20 minutes. 8.9 ml of this reagent mixture was added to 22 μg pLP2175+22 μg pLP2124 (ratio 1:1 and total volume 10 ml), and incubated at room temperature for 25 minutes.
10 minutes before adding the transfection mix to SKBR3 cells in a T175 flask, the culture medium was refreshed with 20 mL culture medium. Subsequently, the 10 mL DNA-Opti-MEM-Lipofectamine mixture was gently added to the cells, followed by overnight (16-24 hours) incubation at 37° C. and 5% CO2.
To harvest SKBR3 cells from a T175 flask, first the medium was removed. Subsequently, cells were washed with Phosphate Buffered Saline (PBS) (Lonza), after which the PBS was removed. To dissociate the cells, 2 ml of TrypLE Express (Invitrogen) was added to the flask, followed by incubation at 37° C. for 5 minutes. The flask was tapped until cells were detached from the bottom. Cells were collected in 8 mL of culture medium (McCoy's 5α, 10% FBS, penstrep), to achieve a single cell suspension. After cell count, cells were spun down for 5 minutes at 300 g. Next cell pellets were re-suspended to 25000 cells/80 μl assay medium (McCoy's 5a phenol red free, 2% charcoal stripped FBS, penstrep).
For compound screening, the cells were harvested (as described above). 80 μL of cell suspension (25,000 cells) was plated per well into a white, flat bottom, tissue culture treated, 96 well screening plates (Greiner). […]

Test [1] has as its target ERRα ligand binding domain (ERRα-LBD) (Homo sapiens (Human), UniProt P11474). Put plainly: ERRα AlphaScreen Assay. In kind it is biochemical. The settings on record: disruption of binding of ERRα-LBD protein to biotin-PGC1α-3 co-activator peptide; for IC50: read-out: mean pIC50 (converted). In outline:
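His-SUMO-tagged ERRα-LBD from E. coli (0.81 nM) preincubated 1 h at room temperature with compound, streptavidin donor and Ni-chelate acceptor beads (10 μg/mL each), then 2 h with 15 nM biotin-PGC1α-3 peptide (aa 202–220). Buffer: 50 mM Tris-HCl pH 7.5, 100 mM NaCl, 5 mM TCEP, 1% DMSO. Four-parameter IC50; mean pIC50 of replicate values.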

Chain of ERRα ligand binding domain (ERRα-LBD) (P11474 193-421): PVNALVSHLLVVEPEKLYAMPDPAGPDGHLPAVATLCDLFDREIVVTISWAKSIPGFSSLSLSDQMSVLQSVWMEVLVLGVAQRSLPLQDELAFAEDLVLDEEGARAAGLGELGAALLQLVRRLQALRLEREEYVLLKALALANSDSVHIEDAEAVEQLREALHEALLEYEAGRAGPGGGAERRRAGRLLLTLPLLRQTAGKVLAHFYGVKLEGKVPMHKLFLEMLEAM
Chain of full length ERRα (P11474 whole entry): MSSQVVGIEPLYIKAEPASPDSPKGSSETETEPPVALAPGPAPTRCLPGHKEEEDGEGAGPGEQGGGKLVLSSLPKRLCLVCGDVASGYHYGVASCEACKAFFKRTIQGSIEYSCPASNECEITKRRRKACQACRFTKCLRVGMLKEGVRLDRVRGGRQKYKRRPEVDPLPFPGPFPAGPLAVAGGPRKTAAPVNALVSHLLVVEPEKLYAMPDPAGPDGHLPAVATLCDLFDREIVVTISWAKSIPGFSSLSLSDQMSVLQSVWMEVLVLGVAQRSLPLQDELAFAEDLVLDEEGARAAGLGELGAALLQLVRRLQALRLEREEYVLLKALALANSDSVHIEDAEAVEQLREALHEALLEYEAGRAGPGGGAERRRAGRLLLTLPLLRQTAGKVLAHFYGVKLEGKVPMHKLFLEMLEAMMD

For `CCc1ccc(COc2ccc(C3CC(=O)Nc4n[nH]cc43)cc2OC)c(C(F)(F)F)c1` (single isomer, unassigned; (+)) [Example 207, (+)-4-(4-{[4-ethyl-2-(trifluoromethyl)phenyl]methoxy}-3-methoxyphenyl)-2H,4H,5H,6H,7H-pyrazolo[3,4-b]pyridin-6-one], at full length ERRα, the IC50 was at most 316 nM.
For `COc1cc(C2CC(=O)Nc3n[nH]cc32)ccc1OCc1ccc(CCO)cc1C(F)(F)F` (single isomer, unassigned; (+)) [Example 211, (+)-4-(4-{[4-(2-hydroxyethyl)-2-(trifluoromethyl)phenyl]methoxy}-3-methoxyphenyl)-2H,4H,5H,6H,7H-pyrazolo[3,4-b]pyridin-6-one], the IC50 was at most 316 nM at full length ERRα and 10 to 100 nM in test [1].
Consider `COc1ccc(COc2ccc(C3CC(=O)Nc4n[nH]cc43)cc2OC)c(C(F)(F)F)c1` (single isomer, unassigned; (-)) [Example 198, (−)-4-(3-methoxy-4-{[4-methoxy-2-(trifluoromethyl)phenyl]methoxy}phenyl)-2H,4H,5H,6H,7H-pyrazolo[3,4-b]pyridin-6-one], for which, at full length ERRα, the IC50 is at most 316 nM.
On to `COc1cc(C2CC(=O)Nc3n[nH]cc32)ccc1OCc1ccc(C(C)=O)cc1C(F)(F)F` (single isomer, unassigned; (-)) [Example 200, (−)-4-(4-{[4-acetyl-2-(trifluoromethyl)phenyl]methoxy}-3-methoxyphenyl)-2H,4H,5H,6H,7H-pyrazolo[3,4-b]pyridin-6-one], for which the IC50 at full length ERRα was at most 316 nM.
For the compound `COc1ccc(COc2ccc(C3CC(=O)Nc4[nH]nnc43)cc2OC)c(C(F)(F)F)c1` (single isomer, unassigned; (-)) [Example 202, (−)-7-(3-methoxy-4-{[4-methoxy-2-(trifluoromethyl)phenyl]methoxy}phenyl)-3H,4H,5H,6H,7H-[1,2,3]triazolo[4,5-b]pyridin-5-one], the IC50 at full length ERRα was at most 316 nM.
As for `COc1cc(C2CC(=O)Nc3n[nH]cc32)ccc1OCc1ccc(CCO)cc1C(F)(F)F` (single isomer, unassigned; (-)) [Example 212, (−)-4-(4-{[4-(2-hydroxyethyl)-2-(trifluoromethyl)phenyl]methoxy}-3-methoxyphenyl)-2H,4H,5H,6H,7H-pyrazolo[3,4-b]pyridin-6-one], the “mean pIC50” value at full length ERRα was at least 6.5.
As for `COc1cc(C2CC(=O)Nc3n[nH]cc32)ccc1COc1ccc(C)cc1C(F)(F)F` (single isomer, unassigned; (-)) [Example 214, (−)-4-(3-methoxy-4-{[4-methyl-2-(trifluoromethyl)phenoxy]methyl}phenyl)-2H,4H,5H,6H,7H-pyrazolo[3,4-b]pyridin-6-one], at full length ERRα, the IC50 is at most 316 nM. Further, the “mean pIC50” value in test [1] is on record as at least 8.
In the case of `COc1cc(C2CC(=O)Nc3n[nH]cc32)ccc1OCc1ccccc1C(F)(F)F` (centres unmarked) [Example 1, 4-(3-methoxy-4-{[2-(trifluoromethyl)phenyl]methoxy}phenyl)-2H,4H,5H,6H, 7H-pyrazolo[3,4-b]pyridin-6-one], the IC50 on full length ERRα is at most 316 nM. Moreover, the “mean pIC50” value in test [1] was at least 8.
For the compound `COc1cc(C2CC(=O)Nc3n[nH]cc32)ccc1OCc1ccc(C(F)(F)F)cc1C(F)(F)F` (centres unmarked) [Example 8, 4-(4-{[2,4-bis(trifluoromethyl)phenyl]methoxy}-3-methoxyphenyl)-2H,4H,5H,6H, 7H-pyrazolo[3,4-b]pyridin-6-one], the IC50 on full length ERRα was at most 316 nM. In addition, the “mean pIC50” value in test [1] is given as at least 8.
As for `COc1cc(C2CC(=O)Nc3n[nH]cc32)ccc1OCc1ccc(F)cc1C(F)(F)F` (centres unmarked) [Example 9, 4-(4-{[4-fluoro-2-(trifluoromethyl)phenyl]methoxy}-3-methoxyphenyl)-2H,4H,5H,6H, 7H-pyrazolo[3,4-b]pyridin-6-one], the results for the IC50 (at full length ERRα; in test [1]) were at most 316 nM and 10 to 100 nM, respectively.
Consider `COc1cc(C2CC(=O)Nc3n[nH]cc32)ccc1OCc1ccc(Cl)cc1C(F)(F)F` (centres unmarked) [Example 15, 4-(4-{[4-chloro-2-(trifluoromethyl)phenyl]methoxy}-3-methoxyphenyl)-2H,4H,5H,6H, 7H-pyrazolo[3,4-b]pyridin-6-one], for which, at full length ERRα, the IC50 is at most 316 nM. The “mean pIC50” value in test [1] is recorded as at least 8.
For `COc1ccc(COc2ccc(C3CC(=O)Nc4n[nH]cc43)cc2OC)c(C(F)(F)F)c1` (centres unmarked) [Example 19, 4-(3-methoxy-4-{[4-methoxy-2-(trifluoromethyl)phenyl]methoxy}phenyl)-2H,4H,5H,6H,7H-pyrazolo[3,4-b]pyridin-6-one], the IC50 at full length ERRα is at most 316 nM. Moreover, in test [1], the “mean pIC50” value was at least 8.
Consider `COc1cc(C2CC(=O)Nc3n[nH]cc32)ccc1OCc1ccccc1OC(F)(F)F` (centres unmarked) [Example 24, 4-(3-methoxy-4-{[2-(trifluoromethoxy)phenyl]methoxy}phenyl)-2H,4H,5H,6H,7H-pyrazolo[3,4-b]pyridin-6-one], for which the IC50 at full length ERRα was at most 316 nM. Further, the “mean pIC50” value in test [1] is on record as at least 8.
Consider `COc1cc(C2CC(=O)Nc3n[nH]cc32)ccc1OCc1cc(C)ccc1C(F)(F)F` (centres unmarked) [Example 32, 4-(3-methoxy-4-{[5-methyl-2-(trifluoromethyl)phenyl]methoxy}phenyl)-2H,4H,5H,6H,7H-pyrazolo[3,4-b]pyridin-6-one], for which the IC50 on full length ERRα was at most 316 nM. Besides, in test [1], the “mean pIC50” value was at least 8.
As for `COc1cc(-c2cc(=O)[nH]c3n[nH]cc23)ccc1OCc1ccc(C#N)cc1C(F)(F)F` [Example 181, 4-[(2-methoxy-4-{6-oxo-2H,6H, 7H-pyrazolo[3,4-b]pyridin-4-yl}phenoxy)methyl]-3-(trifluoromethyl)benzonitrile], the IC50 in test [1] was 10 to 100 nM.
On to `COc1ccc([N+](=O)[O-])cc1COc1ccc(-c2cc(=O)[nH]c3n[nH]cc23)cc1OC` [Example 182, 4-{3-methoxy-4-[(2-methoxy-5-nitrophenyl)methoxy]phenyl}-2H,6H,7H-pyrazolo[3,4-b]pyridin-6-one], for which the IC50 in test [1] was 10 to 100 nM.
On the same count and under the same terms, to `COc1cc(-c2cc(=O)[nH]c3n[nH]cc23)ccc1OCc1ccccc1` [Example 183, 4-[4-(benzyloxy)-3-methoxyphenyl]-2H,6H, 7H-pyrazolo[3,4-b]pyridin-6-one] belongs 100 to 1000 nM.
In the case of `COc1cc(Br)c(COc2ccc(-c3cc(=O)[nH]c4n[nH]cc34)cc2OC)cc1OC` [Example 184, 4-{4-[(2-bromo-4,5-dimethoxyphenyl)methoxy]-3-methoxyphenyl}-2H,6H, 7H-pyrazolo[3,4-b]pyridin-6-one], the IC50 in test [1] was 100 to 1000 nM.
Still for that read-out and setting: to `COC(=O)C1C(=O)Nc2n[nH]cc2C1c1ccc(COc2ccc(C(F)(F)F)cc2C(F)(F)F)c(OC)c1` (centres unmarked) [Example 187, methyl 4-(4-{[2,4-bis(trifluoromethyl)phenoxy]methyl}-3-methoxyphenyl)-6-oxo-2H,4H,5H,6H, 7H-pyrazolo[3,4-b]pyridine-5-carboxylate] belongs 100 to 1000 nM.
In the case of `COc1cc(C2CC(=O)Nc3c[nH]cc32)ccc1COc1ccc(C(F)(F)F)cc1C(F)(F)F` (centres unmarked) [Example 190, 4-(4-{[2,4-bis(trifluoromethyl)phenoxy]methyl}-3-methoxyphenyl)-1H,2H,3H,4H, 6H-pyrrolo[3,4-b]pyridin-2-one], the IC50 in test [1] is 10 to 100 nM.
